Laboratory results published in patent US9328163B2, “Post-translationally modified neurotrophin antibodies” (INSTITUT PASTEUR, priority 2006, dated 2016).

How the values were obtained:
[1] = system: motor neurons; assay: Purified motor neuron cultures, motor neuron survival by direct counting; type: cell-based, rat; conditions: for induction of motor neuron death: BSA 100 ng/mL, FGF-1 or FGF-2 10 ng/mL previously treated with peroxynitrite 1 mM
Method: Media and sera were purchased from Gibco-Invitrogen. Motor neuron cultures were prepared from embryonic day 15 (E15) rat spinal cord by a combination of metrizamide gradient centrifugation and immunopanning with a monoclonal antibody directed against rat p 75^NTR (mouse mAb Ig192) as previously described. Motor neurons were plated at a density of 350 cells/cm^2 on 4 well multidishes (Nunclon) precoated with polyornithine-laminin. Cultures were maintained in Neurobasal™ medium supplemented with 2% horse serum, […] L-glutamate, 25 μM 2-mercaptoethanol, 0.5 mM L-glutamine, and 2% B-27 supplement (Gibco-Invitrogen). Motor neuron survival was maintained by the addition of GDNF (1 ng/mL; Sigma) to the culture media. Motor neuron death induced by trophic factor deprivation (NONE, without GDNF) was determined in all experiments as a control, and never was greater than 50%. Treatments with the different reagents were performed 3 hours after motor neuron plating. Motor neuron survival was assessed after 48 hours by direct counting of all cells displaying intact neurites longer than 4-cell bodies in diameter, in a prefixed area of the dish.
(§1) Treatment with antisense oligonucleotides to down-regulate p75^NTR expression was performed as described previously. Briefly, HPLC-purified phosphorothioate antisense and missense oligonucleotides (5 μM; Integrated DNA Technologies) were added to the cell suspension of purified motor neurons and repeatedly pipetted before seeding. The oligonucleotides were present the whole time of culture. To determine the efficiency of uptake, cultures were incubated with p75^NTR antisense oligonucleotides with a 5′ 56-FAM fluorescent label. Cells were transferred to the heated stage (37° C.) of a Zeiss LSM510 confocal microscope with constant 5% CO2. Fluorescence was imaged with a 63× oil immersion objective. Uptake efficiency was >96% in all experiments. Sequences used were: p75^NTR antisense, 5′-ACCTGCCCTCCTCATTGCA-3′ (SEQ ID NO: 5) and p 75^NTR missense, 5′-CTCCCACTCGTCATTCGAC-3′ (SEQ ID NO: 6).

[2] = system: NGF; assay: Tyrosine nitration and oligomerization of NGF by peroxynitrite (SDS-PAGE, Western blot anti-nitrotyrosine); type: biochemical, mouse; conditions: urate 20 to 1000 μM; peroxynitrite 1 mM
Method: Peroxynitrite concentration was determined spectrophotometrically at 302 nm (ε=1,670 M^−1 cm^−1). Diluted stock solutions were freshly prepared in 0.01 M NaOH. The reactions of NGF (Harlan; Indianapolis, USA) with different concentrations of peroxynitrite (0.25 mM to 2 mM) was performed at a protein concentration of 0.2 mg/mL to 1.0 mg/mL obtaining similar results. The reaction was performed in 50 mM sodium phosphate buffer, pH 7.4, containing 20 mM sodium bicarbonate. NGF was subjected to 10 bolus addition of peroxynitrite (1 μL each) to reach the desired final concentration of peroxynitrite. One bolus of peroxynitrite stock solution was rapidly added on the top of the test tube and mixed by vortexing for 3 sec. The procedure was repeated 10 times. To exclude a potential non-specific effect of peroxynitrite treatment because of pH changes or contaminants, control experiments were performed using diluted NaOH or decomposed peroxynitrite (reverse order addition, ROA). Treatment of bovine serum albumin (Sigma), FGF-1 (Sigma) and FGF-2 (R&D Systems) with peroxynitrite was performed as described above at a concentration of 0.2 mg/mL.
SDS-PAGE was performed in 15% polyacrylamide minigels under reducing conditions. Samples were boiled for 5 min in LaemLi buffer before running. Proteins were visualized by Coomassie Blue or Silver staining. […]

[3] = system: Dorsal root ganglia explants; assay: Neurite outgrowth from dorsal root ganglia explants (GAP-43 immunofluorescence); type: cell-based; conditions: 100 ng/mL; 24 hours; E15 rat embryo ganglia
Method: Dorsal root ganglia explants from E15 rat embryos (that express both TrkA and p75^NTR) were cultured in Neurobasal media in the absence of trophic factors (NONE) or in the presence of NGF (100 ng/mL), NGF treated with peroxynitrite (100 ng/mL; nitroNGF-P) or NGF treated with tetranitromethane (nitroNGF-TNM). After 24 hours cultures were fixed with 4% paraformaldehyde and processed for immunofluorescence against GAP-43.

[4] = system: purified motor neurons; assay: Uptake of fluorescently labelled antisense oligonucleotides (confocal microscopy); type: cell-based, rat; conditions: antisense oligonucleotides with 5′ 56-FAM fluorescent label; all experiments
Method: as §1

[5] = cultures maintained with GDNF (1 ng/mL), no exogenous nitric oxide, 48 h

Oc1nc(O)c2nc(O)[nH]c2n1 [urate]
effect on motor neuron loss induced by peroxynitrite-treated NGF ([1]; urate 100 nM added to culture, NGF-ONOO^− 100 ng/mL, 48 h): did not prevent motor neuron loss | effect on apoptotic activity of peroxynitrite-treated NGF ([1]; urate 200 μM present during peroxynitrite (1 mM) treatment of NGF, NGF 100 ng/mL, 48 h): abolished the apoptotic effect | effect on tyrosine nitration and oligomerization of NGF [2]: prevented tyrosine nitration and oligomerization of NGF in a dose dependent manner

O=C(O)c1ccc(/C2=C3\C=CC(=N3)/C(c3ccc(C(=O)O)cc3)=c3/cc/c4[n]3[Mn]([Cl])[n]3c2ccc3/C(c2ccc(C(=O)O)cc2)=C2/C=CC(=N2)\C=4c2ccc(C(=O)O)cc2)cc1 [MnTBAP]
effect on motor neuron loss induced by peroxynitrite-treated NGF ([1]; MnTBAP 100 μM, NGF-ONOO^− 100 ng/mL, 48 h): prevented

peroxynitrite treated-BSA: bovine serum albumin (Sigma) treated with peroxynitrite
induction of motor neuron death ([1]; 48 h): did not induce motor neuron death

COC(=O)[C@@H](N)CCCNC(=N)N[N+](=O)[O-] [L-NAME]
effect on motor neuron loss induced by peroxynitrite-treated NGF ([1]; L-NAME 1 mM, NGF-ONOO^− 100 ng/mL, 48 h): prevented

peroxynitrite treated-FGF-2: FGF-2 (R&D Systems) treated with peroxynitrite
induction of motor neuron death ([1]; 48 h): did not induce motor neuron death | induction of motor neuron death ([1]; 48 h, listed as nitro-FGF-2): do not exert any apoptotic effect

peroxynitrite-treated NGF: NGF (Harlan) treated with peroxynitrite; nitrated (Tyr52, Trp99), elutes as dimer, tetramer and octamer
neurite growth compared to NGF [3]: increased neurite growth | peroxynitrite concentration at which NGF apoptotic activity reaches a plateau ([1]; NGF 10 ng/mL previously treated with indicated peroxynitrite concentrations, 48 h): higher than 0.5 mM | motor neuron loss ([1]; at 1 pg/mL in the presence of nitric oxide (DETA-NONOate 10 μM), 48 h): 33% | concentration inducing motor neuron death (as low as) ([1]; cultures maintained with GDNF (1 ng/mL), no exogenous nitric oxide, survival 48 h after treatment): 1 ng/mL | increase of potency to induce apoptosis of motor neurons ([1]; in the presence of nitric oxide, versus NGF): 10,000 fold | apoptotic activity relative to unmodified native NGF ([1]; through p75^NTR): 10,000 fold | concentration significantly inducing motor neuron loss ([1]; together with nitric oxide (NGF-ONOO^−+NO)): 1 pg/mL

antisense: phosphorothioate p75^NTR antisense, 5′-ACCTGCCCTCCTCATTGCA-3′ (SEQ ID NO: 5) (DNA, all phosphorothioate, methylation of C not given here; further chemistry not fully specified)
effect on motor neuron apoptosis induced by native NGF in the presence of nitric oxide ([1]; oligonucleotides 5 μM, NGF 100 ng/mL plus DETA-NONOate 10 μM, 48 h): blocked | effect on apoptosis induced by peroxynitrite-treated NGF ([1]; oligonucleotides 5 μM, NGF-ONOO^− 100 ng/mL, 48 h): completely prevented | effect on loss of motor neurons induced by NGF-ONOO^− or NGF+NO ([1]; oligonucleotides added at plating, NGF-ONOO^− 100 ng/mL or NGF 100 ng/mL plus DETA-NONOate 10 μM, 48 h): completely blocked the loss of motor neurons | uptake efficiency [4]: > 96%

COC(=O)CC[C@H](NC(=O)[C@H](CC(=O)OC)NC(=O)OCc1ccccc1)C(=O)N[C@H](C(=O)N[C@@H](CC(=O)OC)C(=O)CF)C(C)C [DEVD-fmk]
effect on motor neuron loss induced by peroxynitrite-treated NGF ([1]; DEVD-fmk 10 μM added every 24 hours, NGF-ONOO^− 100 ng/mL, 48 h): blocked

peroxynitrite treated-FGF-1: FGF-1 (Sigma) treated with peroxynitrite
induction of motor neuron death ([1]; 48 h): did not induce motor neuron death | induction of motor neuron death ([1]; 48 h, listed as nitro-FGF-1): do not exert any apoptotic effect

B1: TNM-treated NGF: NGF (Harlan) treated with 40-fold molar excess of tetranitromethane; nitrated at Tyr52 and Tyr79 (protein)
chain: SSTHPVFHMGEFSVCDSVSVWVGDKTTATDIKGKEVTVLAEVNINNSVFRQYFFETKCRASNPVESGCRGIDSKHWNSYCTTTHTFVKALTTDEKQAAWRFIRIDTACVCVLSRKATR
neurite growth compared to NGF [3]: increased neurite growth | motor neuron loss ([1]; in the absence of nitric oxide, 48 h): 32%

B2: NGF: nerve growth factor, commercially available murine NGF (Harlan), non-nitrated (protein, listed as Mus musculus)
chain: SSTHPVFHMGEFSVCDSVSVWVGDKTTATDIKGKEVTVLAEVNINNSVFRQYFFETKCRASNPVESGCRGIDSKHWNSYCTTTHTFVKALTTDEKQAAWRFIRIDTACVCVLSRKATR
effect on motor neuron survival [1, 5]: not sensitive

B3: NGF-ROA: control NGF treated with decomposed peroxynitrite (reverse order addition) (protein, UniProt P01139 122-241, looked up)
Beta-nerve growth factor: SSTHPVFHMGEFSVCDSVSVWVGDKTTATDIKGKEVTVLAEVNINNSVFRQYFFETKCRASNPVESGCRGIDSKHWNSYCTTTHTFVKALTTDEKQAAWRFIRIDTACVCVLSRKATRRG
modifications: Beta-nerve growth factor treated with decomposed peroxynitrite
effect on motor neuron survival [1, 5]: did not affect motor neuron survival | concentration significantly inducing motor neuron loss ([1]; in the presence of nitric oxide <50 nM from DETA-NONOate (10 μM), 48 h): higher than 10 ng/mL
